Measured values: patent US20110246078A1, “MITOCHONDRIA KATP ION CHANNEL AS A DRUG TARGET FOR PREVENTING LIVER DISEASES AND METHODS TO SCREEN MITOCHONDRIA KATP MODULATORS” (priority 2010, published 2011)
Entries after “also recorded” stand apart in the source; their conditions may differ.

Tested on: mito-KATP channels in HepG2C3A cells
Assay: Label-free RWG biosensor (Epic) DMR cellular assay, agonism mode
Assay type: cell-based, human
Details: 28° C.
From the text: (§1) Epic® wavelength interrogation system (Corning Inc., Corning, N.Y.) was used for whole cell sensing. This system consists of a temperature-control unit, an optical detection unit, and an on-board liquid handling unit with robotics. The detection unit is centered on integrated fiber optics, and enables kinetic measures of cellular responses with a time interval of ˜15sec. The compound solutions were introduced by using the on-board liquid handling unit (i.e., pippetting).
The RWG biosensor is capable of detecting minute changes in local index of refraction near the sensor surface. Since the local index of refraction within a cell is a function of density and its distribution of biomass (e.g., proteins, molecular complexes), the biosensor exploits its evanescent wave to non-invasively detect ligand-induced dynamic mass redistribution in native cells. […]
For biosensor cellular assays, compound solutions were made by diluting the stored concentrated solutions with the HBSS (1× Hanks balanced salt solution, plus 20 mM Hepes, pH 7.1), and transferred into a 384well polypropylene compound storage plate to prepare a compound source plate. […] Both the cell assay plate and the compound source plate(s) were then incubated in the hotel of the reader system. After incubation the baseline wavelengths of all biosensors in the cell assay microplate were recorded and normalized to zero. […]

Row | Structure (SMILES) | pinacidil induced DMR signal (amplitudes and kinetics)
1 | CC(N/C(=N\C#N)Nc1ccncc1)C(C)(C)C (centres unmarked) [pinacidil] | robust; also recorded: concentration dependent

Tested on: pinacidil induced DMR signal in HepG2C3A cells
Assay: Label-free RWG biosensor DMR assay, modulation of the pinacidil induced DMR signal
Assay type: cell-based, human
Details: pre-incubation with compound, pinacidil 40 μM
Protocol: Transfection of siRNAs was performed using N-TER Nanoparticle siRNA Transfection System (Cat#N2913) from Sigma-Aldrich Inc. following the manufacturer's instructions. Briefly, 5000 cells were plated in each well of Epic 384-well plates. Cells were transfected with 50 nM siRNA the next day and incubated in siRNA containing medium for 24 hrs before replaced with fresh cell culture medium. Epic cell assay was performed 48 hours after transfection.
as §1
The RWG biosensor is capable of detecting minute changes in local index of refraction near the sensor surface. Since the local index of refraction within a cell is a function of density and its distribution of biomass (e.g., proteins, molecular complexes), the biosensor exploits its evanescent wave to non-invasively detect ligand-induced dynamic mass redistribution in native cells. The evanescent wave extends into the cells and exponentially decays over distance, leading to a characteristic sensing volume of ˜150 nm, implying that any optical response mediated through the receptor activation only represents an average over the portion of the cell that the evanescent wave is sampling. The aggregation of many cellular events downstream the receptor activation determines the kinetics and amplitudes of a ligand-induced DMR.
For biosensor cellular assays, compound solutions were made by diluting the stored concentrated solutions with the HBSS (1× Hanks balanced salt solution, plus 20 mM Hepes, pH 7.1), and transferred into a 384well polypropylene compound storage plate to prepare a compound source plate. Two compound source plates were made separately when a two-step assay was performed. In parallel, the cells were washed twice with the HBSS and maintained in 30 μl of the HBSS to prepare a cell assay plate. Both the cell assay plate and the compound source plate(s) were then incubated in the hotel of the reader system. After incubation the baseline wavelengths of all biosensors in the cell assay microplate were recorded and normalized to zero. Afterwards, a 2 to 10 min continuous recording was carried out to establish a baseline, and to ensure that the cells reached a steady state. Cellular responses were then triggered by transferring 10 μl of the compound solutions into the cell assay plate using the on-board liquid handler.
All studies were carried out under controlled temperature (28° C.). At least two independent sets of experiments, each with at least three replicates, were performed.

Row | Structure (SMILES) | effect on the pinacidil induced DMR signal
2 | N#C/C(=C/c1ccc(O)c(O)c1)C(=O)NCc1ccccc1 [AG490] | dose-dependently reduced
3 | C1CCC(N=C(NC23CC4CC(CC(C4)C2)C3)N2CCOCC2)CC1.Cl [U-37883A] | no effect
4 | C[C@@H](N)[C@H]1CC[C@H](C(=O)Nc2ccncc2)CC1 [Y-27632] | reduced the pinacidil induced DMR signal dose-dependently
5 | C=C1[C@@H](C)[C@H]2[C@H](Cc3ccccc3)NC(=O)[C@]23OC(=O)/C=C/[C@H](O)CCC[C@@H](C)C/C=C/[C@H]3[C@@H]1O [cytochalasin B] | dose-dependently reduce
6 | C/C1=C/C(=O)O[C@@H]2C[C@@H](CC[C@H](C)/C=C\C=C\CC1)O[C@@](O)([C@@H]1CSC(=O)N1)C2 [latrunculin A] | dose-dependently reduce
7 | CCCCNC(=O)NS(=O)(=O)c1ccc(C)cc1 [tobutamide] | dose-dependently inhibited
8 | Cc1ccc(S(=O)(=O)NC(=O)NN2CCCCCC2)cc1 [tolazamide] | dose-dependent inhibition; also recorded: dose-dependently inhibited
